How the values were obtained:
[1] = target: T1, H^+ /K^+ -ATPase (Sus scrofa, UniProt P19156); test: Inhibitory Action on H^+ /K^+ -ATPase Activity; type: biochemical; details: microsome fraction from porcine gastric mucosa, pH7.4, 37° C., 30 min preincubation, 15 min reaction
T1 construct: a microsome fraction prepared from porcine gastric mucosa was used as a standard enzyme; from tissue; host or cells: porcine gastric mucosa, microsome fraction
Experimental: Inhibitory Action on H^+ /K^+ -ATPase Activity
According to the method of Hongo et al. [The Japanese Journal of Pharmacology, 52, p295, (1990)], a microsome fraction prepared from porcine gastric mucosa was used as a standard enzyme. The standard enzyme (10-20lig protein) and the test compound (0.1-100 μM) dissolved in dimethylsulfoxide was incubated at 37° C. for 30 minutes in the 50 mM Tris-acetate buffer (pH7.4, containing 2 mM magnesium chloride, 5 mM potassium chloride). The enzyme reaction was started by adding adenosinetriphosphate (ATP). Tris at the final concentration of 2 mM, and the reaction was kept at 37° C. for 15 minutes. The reaction was stopped by adding chilled 10% trichloroacetic acid. Inorganic phosphate released during the reaction was calorimetrically determined according to the method of Fiske-Subbarow [The Journal of Biological Chemistry, 66, p375, (1925)]. H^+ /K^+ -ATPase activity was determined by the difference of the enzyme activities under the conditions with or without potassium chloride. The inhibitory activities of test compounds were determined as the 50% inhibitory concentration (IC50 value) from reaction-concentration curve, and the results are shown in Table 3.

[2] = test system: gastric acid secretion; test: Inhibition of Gastric Acid Secretion Observed Under Acute Fistula Method; type: in vivo, male Wistar rats; details: Rattus norvegicus; 30 mg/kg intraduodenally, rats, histamine 10 mg/kg s.c., cumulative 2 h
Experimental: Inhibition of Gastric Acid Secretion Observed Under Acute Fistula Method
Male Wistar rats (6-8 weeks) fasted for 24 hours (water ad libitum) were used. The rats were anesthetized by intraperitoneal administration of 1.25 g/kg of urethane. The abdomen was incised, and acute gastric fistula was connected to the stomach. Two ml of saline was injected into the stomach, and recovered every 20 minutes. The gastric acid secretion was determined by titrating of gastric juice by 150 mM sodium hydroxide up to pH7.0 using an autotitrator. Test compounds (30 mg/kg) suspended in a 0.5% aqueous sodium carboxymethylcellulose (CMC-Na) solution were administered intraduodenally. After 1 hour, gastric acid secretion was stimulated by subcutaneous administration of histamine dihydrochloride dissolved in saline (10 mg/kg). Inhibition (%) of gastric acid secretion was determined by calculating cumulative amount of the acid secretion during two hours after histamine stimulation and then comparing the cumulative amount with that in the control group. In the control group, only 0.5% aqueous CMC-Na solution was administered intraduodenally.

[3] = test system: gastric acid secretion; test: Inhibition of Gastric Acid Secretion Observed Under Stomach Perfusion Method; type: in vivo, male Sprague Dawrey rats; details: Rattus norvegicus, ip, 1 h; rats, histamine i.v. 8 mg/kg/hr, inhibition one hour after administration (1-10 mg/kg, "intrapenetorially"); read-out: ID50 (dose showing 50% inhibition of acid secretion)
Experimental: Inhibition of Gastric Acid Secretion Observed Under Stomach Perfusion Method
Male Sprague Dawrey rats (6-7weeks) fasted for 24 hours were used (water ad libitum). The rats were anesthetized by intraperitoneal administration of 1.25 g/kg of urethane. The abdomen was incised, and gastral cavity was perfused with saline during experiment. The perfusate was titrated by 10 mM sodium hydroxide up to pH5.5 using an autotitrator in accordance with Stat-method. Gastric acid secretion was stimulated by intravenous administration of histamine dihydrochloride (8 mg/kg/hr). Two hours after histamine stimulation, a test compound 1-10 mg/kg) was administered intrapenetorially. The test compound was mixed with small amount of polysorbate-80, and the mixture was suspended in saline. The test compound was evaluated using ID50 (dose showing 50% inhibition of acid secretion) which was calculated based on inhibition of the acid secretion observed one hour after administration of the compound.

[4] = design: species or system male ICR mice; details: mouse, in vivo, po, 10080 min
Experimental: Male ICR mice (6 weeks, 3 mice per group) fasted for 16 hours were used ad libitum). A test compound suspended in 5% aqueous gum arabic solution was orally administered. After administration, mortality of the animals observed during 7 days and approximate lethal dose was determined.

[5] = test system: ethanol-induced gastric lesion; test: Inhibition of Ethanol-induced Gastric Lesion (Protection of gastric mucosa); type: in vivo, male Wister rats; details: Rattus norvegicus, po, 1 h; 30 mg/kg orally, rats, ethanol 0.5 ml/100 g
Experimental: Inhibition of Ethanol-induced Gastric Lesion (Protection of gastric mucosa)
Male Wister rats (6-7weeks, 5 rats per group) fasted for 24 hours were used (water ad libitum). Test compound (30 mg/kg) suspended in 0.5% aqueous CMC-Na solution was orally administered. In the control group, only 0.5% aqueous CMC-Na solution was administered. Thirty minutes after administration, 0.5 ml/100 g body weight of ethanol was orally administered to cause gastric lesion. After one hour, the rat was killed by excessive amount of ether, and the stomach was removed and fixed with 2% formalin. After fixation, the stomach was dissected along the large curvature. The size of each of mucosal lesions was measured under dissecting microscope, and the total size of the lesions per rat was determined and used as ulcer index (mm). Inhibition of gastric lesion was determined by comparing the ulcer index in the control group and test group.

T1 sequence (P19156 2-1034 limits assumed): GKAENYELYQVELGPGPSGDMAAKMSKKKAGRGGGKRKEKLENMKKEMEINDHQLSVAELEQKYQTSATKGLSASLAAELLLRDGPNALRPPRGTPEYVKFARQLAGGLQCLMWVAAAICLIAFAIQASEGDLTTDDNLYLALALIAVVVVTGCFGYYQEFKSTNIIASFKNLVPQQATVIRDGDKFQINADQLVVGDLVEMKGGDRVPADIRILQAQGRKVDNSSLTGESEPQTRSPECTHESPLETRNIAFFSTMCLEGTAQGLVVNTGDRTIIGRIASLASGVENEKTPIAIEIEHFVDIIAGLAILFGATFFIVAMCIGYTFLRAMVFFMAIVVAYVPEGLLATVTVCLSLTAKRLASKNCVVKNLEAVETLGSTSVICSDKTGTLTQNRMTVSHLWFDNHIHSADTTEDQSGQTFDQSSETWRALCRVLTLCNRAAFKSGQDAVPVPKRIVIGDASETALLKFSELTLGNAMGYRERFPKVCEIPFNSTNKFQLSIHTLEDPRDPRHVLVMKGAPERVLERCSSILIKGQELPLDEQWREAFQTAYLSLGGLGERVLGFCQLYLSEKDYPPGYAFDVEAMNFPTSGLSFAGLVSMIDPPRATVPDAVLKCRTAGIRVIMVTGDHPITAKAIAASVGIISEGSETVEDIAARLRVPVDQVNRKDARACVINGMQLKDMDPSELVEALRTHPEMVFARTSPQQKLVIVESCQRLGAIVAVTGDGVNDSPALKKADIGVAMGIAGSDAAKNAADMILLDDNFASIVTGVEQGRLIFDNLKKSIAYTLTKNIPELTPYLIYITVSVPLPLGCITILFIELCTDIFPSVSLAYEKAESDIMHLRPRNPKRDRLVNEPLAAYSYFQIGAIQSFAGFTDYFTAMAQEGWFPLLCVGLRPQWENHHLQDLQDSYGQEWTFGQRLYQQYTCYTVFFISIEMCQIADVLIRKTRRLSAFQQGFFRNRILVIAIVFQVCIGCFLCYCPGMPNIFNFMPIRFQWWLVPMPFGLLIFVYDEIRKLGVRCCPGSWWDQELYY
T1 sequence (P18434 whole entry partner): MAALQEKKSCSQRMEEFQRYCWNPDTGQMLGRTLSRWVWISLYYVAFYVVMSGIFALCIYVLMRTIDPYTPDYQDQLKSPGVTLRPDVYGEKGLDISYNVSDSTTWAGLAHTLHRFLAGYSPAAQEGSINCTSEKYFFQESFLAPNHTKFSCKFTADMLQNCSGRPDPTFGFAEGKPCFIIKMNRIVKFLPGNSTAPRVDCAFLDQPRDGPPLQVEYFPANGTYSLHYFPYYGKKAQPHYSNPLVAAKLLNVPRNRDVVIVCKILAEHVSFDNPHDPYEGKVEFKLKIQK

Row | SMILES | IC50 [1] | inhibition in vivo at 30 mg/kg [2] | ED50 [3] | Approximate lethal dose [4] | inhibition in vivo at 30 mg/kg [5]
1 | Cc1ccccc1-c1nc2c3cc(Cl)ccc3ccn2c1N [Compound 6, 3-Amino-9-chloro-2-(2-methylphenyl)imidazo[2,1-a]isoquinoline] | 12 µM | 79.6% | 5 mg/kg | > 2,000 mg/kg | –
2 | Cc1ccccc1-c1nc2c3c(Cl)cccc3ccn2c1N [Compound 7, 3-Amino-10-chloro-2-(2-methylphenyl)imidazo[2,1-a]isoquinoline] | 8 µM | 74.9% | – | – | –
3 | Cc1ccccc1-c1nc2c3ccccc3cc(C)n2c1N [Compound 9, 3-Amino-5-methyl-2-(2-methylphenyl)imidazo[2,1-a]isoquinoline] | 34 µM | 90.7% | 3.1 mg/kg | > 2,000 mg/kg | –
4 | COc1ccc2ccn3c(N)c(-c4ccccc4C)nc3c2c1 [Compound 26, 3-Amino-9-methoxy-2-(2-methylphenyl)imidazo[2,1-a]isoquinoline] | 32 µM | 90.8% | 2.8 mg/kg | > 2,000 mg/kg | –
5 | CSc1cccc2c1ccn1c(N)c(-c3ccccc3C)nc21 [Compound 46, 3-Amino-2-(2-methylphenyl)-7-(methylthio)imidazo[2,1-a]isoquinoline] | 8.4 µM | 73.8% | – | – | –
6 | COc1ccc2ccn3c(N)c(-c4sccc4C)nc3c2c1 [Compound 75, 3-Amino-9-methoxy-2-(3-methyl-2-thienyl)imidazo[2,1-a]isoquinoline] | 6.4 µM | 73.3% | – | – | –
7 | Cc1cc(-c2nc3c4ccccc4ccn3c2N)c(C)o1 [Compound 91, 3-Amino-2-(2,5-dimethyl-3-furyl)imidazo[2,1-a]isoquinoline] | 5.6 µM | – | – | > 2,000 mg/kg | –
8 | CCNc1c(-c2sccc2C)nc2c3ccccc3c(OC)cn12 [Compound 176, 3-Ethylamino-6-methoxy-2-(3-methyl-2-thienyl)imidazo[2,1-a]isoquinoline] | 9 µM | 49.9% | – | > 2,000 mg/kg | –
9 | CCNc1c(-c2csc(Cl)c2C)nc2c3ccccc3ccn12 [Compound 179, 2-(2-Chloro-3-methyl-4-thienyl)-3-ethylaminoimidazo[2,1-a]isoquinoline] | 4.8 µM | 52.8% | – | > 2,000 mg/kg | –
10 | CCCNc1c(-c2ccccc2C)nc2c3ccccc3c(OC)cn12 [Compound 182, 6-Methoxy-2-(2-methylphenyl)-3-propylaminoimidazo[2,1-a]isoquinoline] | 11 µM | 58.4% | – | > 2,000 mg/kg | –
11 | Cc1ccccc1-c1nc2c3ccccc3ccn2c1NCCC(C)C [Compound 188, 3-Isopentylamino-2-(2-methylphenyl)imidazo[2,1-a]isoquinoline] | 10.5 µM | 79.1% | – | > 2,000 mg/kg | –
12 | CCN(CCOC)c1c(-c2ccccc2C)nc2c3ccccc3ccn12 [Compound 205, 3-[N-Ethyl-N-(2-methoxyethyl)amino]-2-(2-methylphenyl)imidazo[2,1-a]isoquinoline] | – | 86% | – | > 2,000 mg/kg | 98.6%
13 | CCCN(CC)c1c(-c2ccccc2C)nc2c3ccccc3ccn12 [Compound 207, 3-(N-Ethyl-N-propylamino)-2-(2-methylphenyl)imidazo[2,1-a]isoquinoline] | 9.3 µM | 67.4% | – | – | –
14 | CCCN(CC)c1c(-c2sccc2C)nc2c3ccccc3ccn12 [Compound 212, 3-(N-Ethyl-N-propylamino)-2-(3-methyl-2-thienyl)imidazo[2,1-a]isoquinoline] | 1.9 µM | – | – | > 2,000 mg/kg | –
15 | CCN(CCCSC)c1c(-c2ccccc2C)nc2c3ccccc3ccn12 [Compound 214, 3-[N-Ethyl-N-(3-methylthiopropyl)amino]-^2-(2-methylphenyl)imidazo[2,1-a]isoquinoline] | 7 µM | 56% | – | – | –
16 | CCc1ccccc1-c1nc2c3ccccc3ccn2c1N(CC)CCC(C)C [Compound 216, 3-(N-Ethyl-N-isopentylamino)-2-(2-ethylphenyl)imidazo[2,1-a]isoquinoline] | 2.5 µM | – | – | > 2,000 mg/kg | 81.7%
17 | Cc1ccccc1-c1nc2c3ccccc3ccn2c1N1CCCCC1 [Compound 217, 2-(2-Methylphenyl)-3-piperidinoimidazo[2,1-a]isoquinoline] | 4.7 µM | – | – | > 2,000 mg/kg | –
18 | C=CCN(CC=C)c1c(-c2ccccc2C)nc2c3ccccc3ccn12 [Compound 223, 3-diallylamino-2-(2-methylphenyl)imidazo[2,1-a]isoquinoline] | 4.5 µM | 60.1% | – | – | –
19 | Cc1ccccc1-c1nc2c3ccsc3ccn2c1N [Compound 234, 3-Amino-2-(2-methylphenyl)imidazo[1,2-a]thieno[3,2-c]pyridine] | 7.6 µM | – | 1.8 mg/kg | – | –
20 | Cc1ccccc1-c1nc2c3ccsc3cc(C)n2c1N [Compound 236, 3-Amino-5-methyl-2-(2-methylphenyl)imidazo[1,2-a]thieno[3,2-c]pyridine] | 4.7 µM | – | 1.4 mg/kg | > 2,000 mg/kg | 91.5%
21 | Cc1sccc1-c1nc2c3ccsc3ccn2c1N [Compound 254, 3-Amino-2-(2-methyl-3-thienyl)imidazo[1,2-a]thieno[3,2-c]pyridine] | 4.5 µM | – | 1.1 mg/kg | – | 92.4%
22 | Cc1sccc1-c1nc2c3ccsc3cc(C)n2c1N [Compound 255, 3-Amino-5-methyl-2-(2-methyl-3-thienyl)imidazo[1,2-a]thieno[3,2-c]pyridine] | 6.6 µM | – | 1 mg/kg | – | –
23 | Cc1cc(-c2nc3c4ccsc4ccn3c2N)c(C)o1 [Compound 271, 3-Amino-2-(2,5-dimethyl-3-furyl)imidazo[1,2-a]thieno[3,2-c]pyridine] | 5.2 µM | – | 2.4 mg/kg | – | 99.5%
24 | Cc1ccccc1-c1nc2c3ccn(C)c3ccn2c1N [Compound 291, 3-Amino-7-methyl-2-(2-methylphenyl)imidazo[1,2-a]pyrrolo[3,2-c]pyridine] | 4.8 µM | – | 6.4 mg/kg | – | –
25 | Cc1ccccc1-c1nc2c3sccc3ccn2c1N [Compound 310, 3-Amino-2-(2-methylphenyl)imidazo[1,2-a]thieno[2,3-c]pyridine] | 26 µM | – | 3 mg/kg | > 2,000 mg/kg | –
26 | CCNc1c(-c2ccccc2C)nc2c3ccsc3ccn12 [Compound 340, 3-Ethylamino-2-(2-methylphenyl)imidazo[1,2-a]thieno[3,2-c]pyridine] | 33 µM | – | 4.9 mg/kg | – | –

— patent US6020342A, “Fused imidazo[1,2-A]pyridines” (Shinnippon Pharmaceutical, Inc., priority 1995, dated 2000)
